Assay results reported in patent US9193995B2, “Compositions for detecting human interferon-alpha subtypes and methods of use” (UNITED STATES DEPARTMENT OF HEALTH AND HUMAN SERVICES, priority 2008, dated 2015).

Assays:
Assay in all cases: IFN subtype expression in response to TLR ligands (RT-PCR)
Assay type in all cases: cell-based, Human
plasmacytoid DC (pDC) = details: 10 uM Imiquimod, 6.5 ug/ml CpG A, 1, 4 or 24 hours, much higher levels than mDC
Excerpt: (§1) To test whether expression of IFN subtypes varied among different cell types, the primers of the invention were used to determine expression patterns of IFN-alpha, IFN-lambda, IFN-beta and IFN-gamma in response to ligands of TLR 3 (poly I:C), 4 (LPS), 7 (imiquimod) and 9 (CpG). LPS (E. coli O111:B4), imiquimod, and poly I:C were purchased from EMD Chemicals (Gibbstown, N.J.). CpG types D35, K, and C, and control D35 GpC oligonucleotides were synthesized by the Food and Drug Administration Center for Biologics Evaluation and Research Facility for Biotechnology Resources. For both the D35 CpG and control GpC, the two bases at the 5′ and 3′ ends had nuclease-resistant phosphorothioate linkages.
(§2) Human peripheral blood monocytes, myeloid DC (mDC), plasmacytoid DC (pDC), and B cells were isolated. Elutriated monocytes and lymphocytes were obtained from the NIH Clinical Center Department of Transfusion Medicine (Bethesda, Md.) and the preparation was subjected to Ficoll-Hypaque (Sigma-Aldrich, St. Louis, Mo.) density centrifugation. Monocytes, mDC and pDC were purified with magnetic beads specific for CD14, CD1c, and CD303, respectively using an AutoMACS magnetic cell sorter (Miltenyi Biotec, Auburn, Calif.). […]

myeloid DC (mDC) = details: 10 uM Imiquimod, 6.5 ug/ml CpG A, 1, 4 or 24 hours, varied with donor, FIG. 9E
Excerpt: as §1, §2

monocytes, MDM and MDDC = details: 25 ug/ml Poly I:C, 10 ng/ml LPS, 1, 4 or 24 hours, FIG. 9A-C
Excerpt: as §1, §2

Molecule	IFN expression in response to TLR ligand (plasmacytoid DC (pDC))	IFN expression in response to TLR ligand (myeloid DC (mDC))	IFN expression in response to TLR ligand (monocytes, MDM and MDDC)
CC(C)Cn1cnc2c(N)nc3ccccc3c21 [imiquimod]	expressed most IFN	expressed most IFN-a subtypes	–
poly I:C	–	–	expressed high levels of IFN-b, IFN-g, IFN-11, and to a lesser extent, IFN-l2 and IFN-a1
